Laboratory results reported in patent US4563472A, “Iodoallyl and iodopropargyl substituted tetrazoles and anti-microbial compositions thereof” (Meiji Seika Kaisha, Ltd., priority 1982, dated 1986).
Converted amounts (≈) assume the structure as drawn.

Key:
Format in all cases: cell-based
Erwinia carotovora = assay: Antibacterial and Antifungal Activities (in Agricultural Field), MIC; details: Pectobacterium carotovorum, read-out: Minimal Inhibitory Conc. (MIC)
[1] = test system: Trichoderma T-1 ATCC 9645; assay: Antifungal Activity (in Industrial Field), MIC; details: ATCC9645, read-out: Minimal Inhibitory Conc. (MIC)
[2] = test system: Staphylococcus epidermidis ATCC 14990; assay: Antibacterial Activity (in medicinal field), MIC; details: ATCC14990; Staphylococcus epidermidis ATCC 14990; read-out: Minimal Inhibitory Conc. (MIC)
Glomerella cingulata = assay: Antibacterial and Antifungal Activities (in Agricultural Field), MIC; details: Colletotrichum gloeosporioides, read-out: Minimal Inhibitory Conc. (MIC)
[3] = test system: Aspergillus flavus ATCC 6275; assay: Antifungal Activity (in Industrial Field), MIC; details: ATCC6275, read-out: Minimal Inhibitory Conc. (MIC)
Pellicularia filamentosa = assay: Antibacterial and Antifungal Activities (in Agricultural Field), MIC; details: read-out: Minimal Inhibitory Conc. (MIC)
Gibberella fujikuroi = assay: as above; details: Fusarium fujikuroi, read-out: Minimal Inhibitory Conc. (MIC)
Alternaria kikuchiana = assay: as above; details: read-out: Minimal Inhibitory Conc. (MIC)
[4] = test system: Trichophyton interdigitale; assay: Antifungal Activity (in Medicinal Field), MIC; details: read-out: Minimal Inhibitory Conc. (MIC)
Diaporithe citri = assay: Antibacterial and Antifungal Activities (in Agricultural Field), MIC; details: read-out: Minimal Inhibitory Conc. (MIC)
[5] = test system: Shigella sonnei EW 33 Type I; assay: Antibacterial Activity (in medicinal field), MIC; details: Shigella sonnei, EW33TYPEI, read-out: Minimal Inhibitory Conc. (MIC)
Proteus vulgaris OX-19 = assay: Antibacterial Activity (in medicinal field), MIC; details: OX19, read-out: Minimal Inhibitory Conc. (MIC)
[6] = test system: Pseudomonas syringae pv. tabaci; assay: Antibacterial and Antifungal Activities (in Agricultural Field), MIC; details: read-out: Minimal Inhibitory Conc. (MIC)
[7] = test system: Staphylococcus aureus 209P JC-1; assay: Antibacterial Activity (in medicinal field), MIC; details: Staphylococcus aureus 209P JC-1; read-out: Minimal Inhibitory Conc. (MIC)
[8] = test system: Colletotrichum lagenarium; assay: Antibacterial and Antifungal Activities (in Agricultural Field), MIC; details: Colletotrichum orbiculare, read-out: Minimal Inhibitory Conc. (MIC)
[9] = test system: Aspergillus terreus PQMD 82 j; assay: Antifungal Activity (in Industrial Field), MIC; details: PQMD82J, read-out: Minimal Inhibitory Conc. (MIC)
[10] = test system: Fusarium oxysporum f. lycopersici; assay: Antibacterial and Antifungal Activities (in Agricultural Field), MIC; details: read-out: Minimal Inhibitory Conc. (MIC)
[11] = test system: Klebsiella pneumoniae PCI-602; assay: Antibacterial Activity (in medicinal field), MIC; details: PCI602, read-out: Minimal Inhibitory Conc. (MIC)
[12] = test system: Xanthomonas campestris pv. citri; assay: Antibacterial and Antifungal Activities (in Agricultural Field), MIC; details: read-out: Minimal Inhibitory Conc. (MIC)
[13] = test system: Corynebacterium michiganense; assay: as above; details: Clavibacter michiganensis; Corynebacterium michiganense; read-out: Minimal Inhibitory Conc. (MIC)
[14] = test system: Pseudomonas cepacia M-0527; assay: Antibacterial Activity (in medicinal field), MIC; details: Burkholderia cepacia, M0527, read-out: Minimal Inhibitory Conc. (MIC)
Candida alubicans GA-24 = assay: Antifungal Activity (in Medicinal Field), MIC; details: GA24; Candida alubicans GA-24; read-out: Minimal Inhibitory Conc. (MIC)
[15] = test system: Xanthomonas campestris pv. oryzae; assay: microbe, parasite or virus in culture; details: read-out: Minimal Inhibitory Conc. (MIC)
Mucor spinescens IAM Mu3 = assay: Antifungal Activity (in Industrial Field), MIC; details: IAMMU3, read-out: Minimal Inhibitory Conc. (MIC)
[16] = test system: Trichophyton metagrophytes 530324; assay: Antifungal Activity (in Medicinal Field), MIC; details: Trichophyton metagrophytes 530324; read-out: Minimal Inhibitory Conc. (MIC)
[17] = test system: Penicillium luteum ATCC 9644; assay: Antifungal Activity (in Industrial Field), MIC; details: Ascospirella lutea, ATCC9644, read-out: Minimal Inhibitory Conc. (MIC)
[18] = test system: Pullularia pullulans IAM F-24; assay: Antifungal Activity (in Industrial Field), MIC; details: IAMF24; Pullularia pullulans IAM F-24; read-out: Minimal Inhibitory Conc. (MIC)
[19] = test system: Aspergillus fumigatus Saito; assay: Antifungal Activity (in Medicinal Field), MIC; details: read-out: Minimal Inhibitory Conc. (MIC)
[20] = test system: Aspergillus fumigatus IAM 2621; assay: Antifungal Activity (in Industrial Field), MIC; details: IAM2621, read-out: Minimal Inhibitory Conc. (MIC)
Botrytis cinerea = assay: Antibacterial and Antifungal Activities (in Agricultural Field), MIC; details: read-out: Minimal Inhibitory Conc. (MIC)
[21] = test system: Chaetomium globosum ATCC 6205; assay: Antifungal Activity (in Industrial Field), MIC; details: ATCC6205, read-out: Minimal Inhibitory Conc. (MIC)
Cochliobolus miyabeanus = assay: Antibacterial and Antifungal Activities (in Agricultural Field), MIC; details: Bipolaris oryzae, read-out: Minimal Inhibitory Conc. (MIC)
[22] = test system: Cladosporium herbarum IAM F-517; assay: Antifungal Activity (in Industrial Field), MIC; details: IAMF517, read-out: Minimal Inhibitory Conc. (MIC)
[23] = test system: Cryptococcus neoformans Cr-1; assay: Antifungal Activity (in Medicinal Field), MIC; details: CR1, read-out: Minimal Inhibitory Conc. (MIC)
[24] = test system: Escherichia coli NIHJ JC-2; assay: Antibacterial Activity (in medicinal field), MIC; details: NIHJJC2, read-out: Minimal Inhibitory Conc. (MIC)
[25] = test system: Serratia marcescens MB-3848; assay: Antibacterial Activity (in medicinal field), MIC; details: MB3848, read-out: Minimal Inhibitory Conc. (MIC)
Phricularia oryzae = assay: Antibacterial and Antifungal Activities (in Agricultural Field), MIC; details: read-out: Minimal Inhibitory Conc. (MIC)

Row | Structure (SMILES) | MIC (Erwinia carotovora) | MIC [1] | MIC [2] | MIC (Glomerella cingulata) | MIC [3] | MIC (Pellicularia filamentosa) | MIC (Gibberella fujikuroi) | MIC (Alternaria kikuchiana) | MIC [4] | MIC (Diaporithe citri) | MIC [5] | MIC (Proteus vulgaris OX-19) | MIC [6] | MIC [7] | MIC [8] | MIC [9] | MIC [10] | MIC [11] | MIC [12] | MIC [13] | further results
1 | O=[N+]([O-])c1nccn1CC(I)=C(I)I [1-(2',3',3'-triiodoallyl)-2-nitroimidazole] | 12.5 µg/mL (≈ 23.5 µM) | 6.25 µg/mL (≈ 11.8 µM) | 12.5 µg/mL (≈ 23.5 µM) | 0.78 µg/mL (≈ 1.47 µM) | 1.56 µg/mL (≈ 2.94 µM) | 25 µg/mL (≈ 47.1 µM) | 0.78 µg/mL (≈ 1.47 µM) | 0.78 µg/mL (≈ 1.47 µM) | 1.56 µg/mL (≈ 2.94 µM) | 1.56 µg/mL (≈ 2.94 µM) | 3.12 µg/mL (≈ 5.88 µM) | 6.25 µg/mL (≈ 11.8 µM) | 12.5 µg/mL (≈ 23.5 µM) | 12.5 µg/mL (≈ 23.5 µM) | 0.78 µg/mL (≈ 1.47 µM) | 0.78 µg/mL (≈ 1.47 µM) | 1.56 µg/mL (≈ 2.94 µM) | 6.25 µg/mL (≈ 11.8 µM) | 25 µg/mL (≈ 47.1 µM) | 3.13 µg/mL (≈ 5.9 µM) | MIC [14]: 3.12 µg/mL (≈ 5.88 µM); MIC (Candida alubicans GA-24): 0.78 µg/mL (≈ 1.47 µM); MIC [15]: 12.5 µg/mL (≈ 23.5 µM); MIC (Mucor spinescens IAM Mu3): 6.25 µg/mL (≈ 11.8 µM); MIC [16]: 0.78 µg/mL (≈ 1.47 µM); MIC [17]: 3.13 µg/mL (≈ 5.9 µM); MIC [18]: 3.13 µg/mL (≈ 5.9 µM); MIC [19]: 0.78 µg/mL (≈ 1.47 µM); MIC [20]: 6.25 µg/mL (≈ 11.8 µM); MIC (Botrytis cinerea): 0.19 µg/mL (≈ 0.358 µM); MIC [21]: 1.56 µg/mL (≈ 2.94 µM); MIC (Cochliobolus miyabeanus): 0.78 µg/mL (≈ 1.47 µM); MIC [22]: 0.39 µg/mL (≈ 0.735 µM); MIC [23]: 25 µg/mL (≈ 47.1 µM)
2 | IC(I)=C(I)Cn1ccnc1 [1-(2',3',3'-triiodoallyl)imidazole] | 12.5 µg/mL (≈ 25.7 µM) | 6.25 µg/mL (≈ 12.9 µM) | 12.5 µg/mL (≈ 25.7 µM) | 1.56 µg/mL (≈ 3.21 µM) | 3.13 µg/mL (≈ 6.44 µM) | 50 µg/mL (≈ 103 µM) | 0.78 µg/mL (≈ 1.61 µM) | 1.56 µg/mL (≈ 3.21 µM) | 3.12 µg/mL (≈ 6.42 µM) | 0.78 µg/mL (≈ 1.61 µM) | 6.5 µg/mL (≈ 13.4 µM) | 12.5 µg/mL (≈ 25.7 µM) | 12.5 µg/mL (≈ 25.7 µM) | 12.5 µg/mL (≈ 25.7 µM) | 1.56 µg/mL (≈ 3.21 µM) | 0.78 µg/mL (≈ 1.61 µM) | 1.56 µg/mL (≈ 3.21 µM) | 12.5 µg/mL (≈ 25.7 µM) | 25 µg/mL (≈ 51.5 µM) | 1.56 µg/mL (≈ 3.21 µM) | MIC [14]: 6.25 µg/mL (≈ 12.9 µM); MIC [24]: 12.5 µg/mL (≈ 25.7 µM); MIC [25]: 12.5 µg/mL (≈ 25.7 µM); MIC (Phricularia oryzae): 3.13 µg/mL (≈ 6.44 µM); MIC (Candida alubicans GA-24): 1.56 µg/mL (≈ 3.21 µM); MIC (Mucor spinescens IAM Mu3): 6.25 µg/mL (≈ 12.9 µM); MIC [16]: 1.56 µg/mL (≈ 3.21 µM); MIC [17]: 0.78 µg/mL (≈ 1.61 µM); MIC [18]: 3.13 µg/mL (≈ 6.44 µM); MIC [19]: 6.25 µg/mL (≈ 12.9 µM); MIC [20]: 6.25 µg/mL (≈ 12.9 µM); MIC (Botrytis cinerea): 1.56 µg/mL (≈ 3.21 µM); MIC [21]: 1.56 µg/mL (≈ 3.21 µM); MIC (Cochliobolus miyabeanus): 6.25 µg/mL (≈ 12.9 µM); MIC [22]: 0.39 µg/mL (≈ 0.803 µM); MIC [23]: 6.25 µg/mL (≈ 12.9 µM)
